According to patent US12410160B2 (Gilead Sciences, Inc., priority 2021, dated 2025):
Where two headings read alike, the source gives them in different places.

Assays:
human KHK-C = human KHK-C (Homo sapiens (Human), UniProt P50053); test: KHK Biochemical Assay (IC50), ADP-Glo, KHK-C; details: average of at least two separate assays
Method in brief: (§1)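 His-tagged enzyme expressed in BL21 (DE3), Ni-NTA purified. Compounds, serially diluted 1:3 in DMSO, pre-incubated 30 min with enzyme in 50 mM Hepes pH 7.4, 140 mM KCl, 5 mM MgCl2, 0.01% Triton-X, then ATP and fructose added; 4 h at room temperature. ADP formation read by ADP-Glo luminescence.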

HepG2 cells = test: F1P Cell-Based Assay (EC50), 13C6-fructose-1-phosphate in HepG2 cells (cell culture medium or 50% human plasma)
human KHK-A = human KHK-A (Homo sapiens (Human), UniProt P50053); test: KHK Biochemical Assay (IC50), ADP-Glo, KHK-A; details: average of at least two separate assays
Chain of human KHK-A (P50053 other isoform, or with tags, fused parts or gaps): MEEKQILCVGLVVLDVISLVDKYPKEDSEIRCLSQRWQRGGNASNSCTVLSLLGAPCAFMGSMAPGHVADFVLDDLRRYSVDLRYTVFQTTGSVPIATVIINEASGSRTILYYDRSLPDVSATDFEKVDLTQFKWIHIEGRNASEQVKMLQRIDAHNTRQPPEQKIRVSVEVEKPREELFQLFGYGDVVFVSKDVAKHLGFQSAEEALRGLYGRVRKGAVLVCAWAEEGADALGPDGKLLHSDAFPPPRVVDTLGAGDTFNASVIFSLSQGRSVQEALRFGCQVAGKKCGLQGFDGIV
Method in brief: as §1

[1] = target: KHK-C expressed in NRK-52E cells (Homo sapiens (Human), UniProt P50053); test: KHK-C Cell-based Assay (EC50), NRK CTG, fructose-mediated ATP-depletion
Chain of KHK-C expressed in NRK-52E cells (P50053 whole entry): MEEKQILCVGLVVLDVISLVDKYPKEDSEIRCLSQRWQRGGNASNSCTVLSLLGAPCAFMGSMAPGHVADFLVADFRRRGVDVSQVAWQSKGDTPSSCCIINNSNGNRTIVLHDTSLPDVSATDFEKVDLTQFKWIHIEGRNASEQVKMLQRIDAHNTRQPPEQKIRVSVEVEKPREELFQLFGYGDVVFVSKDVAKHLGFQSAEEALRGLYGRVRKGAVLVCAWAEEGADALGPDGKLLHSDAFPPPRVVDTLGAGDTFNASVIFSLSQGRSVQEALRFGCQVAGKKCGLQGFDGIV

[2] = Homo sapiens, HepG2, HepG2 cells, 50% human plasma, read-out: F1P 50% HP EC50
[3] = Homo sapiens, HepG2, read-out: F1P 10% FBS EC50, HepG2 cells, cell culture medium (10% FBS)
[4] = HepG2 cells, 50% human plasma, read-out: F1P 50% HP EC50
[5] = read-out: F1P 10% FBS EC50, HepG2 cells, cell culture medium (10% FBS)

Chain of human KHK-C (P50053 whole entry): as above

**Q.** `C[C@H]1[C@@H](F)CN1c1nc(-c2ccc(C3(N)COC3)cc2)c2c(n1)C(F)(F)CC2` (stereo in doubt) [Example 469, 3-(4-(7,7-difluoro-2-((28,38)-3-fluoro-2-methylazetidin-1-yl)-6,7-dihydro-5H-cyclopenta[d]pyrimidin-4-yl)phenyl)oxetan-3-amine] was tested. Which IC50 (human KHK-C) did it give?
**A.** 2.5 nM

**Q.** What about the EC50 (HepG2 cells; [2]) of the same compound?
**A.** 22.5 nM

**Q.** What about the EC50 (HepG2 cells; [3]) of the same compound?
**A.** 10.7 nM

**Q.** What about the IC50 (human KHK-A) of the same compound?
**A.** 6.7 nM

**Q.** `C[C@H]1CCN1c1nc(-c2cccc(C(N)=O)c2)c2c(n1)C1CC1C2` (stereo partly drawn) [Example 272, 3-(2-((S)-2-methylazetidin-1-yl)-5,5a,6,6a-tetrahydrocyclopropa[4,5]cyclopenta[1,2-d]pyrimidin-4-yl)benzamide] was tested. Which EC50 [1] did it give?
**A.** 635 nM

**Q.** `C[C@H]1CCN1c1nc2c(c(-c3ccc4c(c3)CN(S(=O)(=O)CC#N)CC4)n1)CCC2` [Example 604, (S)-2-((7-(2-(2-methylazetidin-1-yl)-6,7-dihydro-5H-cyclopenta[d]pyrimidin-4-yl)-3,4-dihydroisoquinolin-2(1H)-yl)sulfonyl)acetonitrile] was tested. Which EC50 [1] did it give?
**A.** 164 nM

**Q.** How did the EC50 [1] turn out when `C[C@H]1CCN1c1nc2c(c(-c3cn(CCO)nn3)n1)CCC2` [Example 645, 2-[4-[2-[(2S)-2-methylazetidin-1-yl]-6,7-dihydro-5H-cyclopenta[d]pyrimidin-4-yl]triazol-1-yl]ethanol] was run?
**A.** 399 nM

**Q.** Which results are given for `COc1ccc(-c2nc(N3C[C@@H](O)[C@@H]3C)nc3c2CCC3(F)F)cc1[S@@](=N)(=O)C1CC1` (single isomer, unassigned) [Example 539]?
**A.** IC50 (human KHK-C): 1 nM; EC50 (HepG2 cells; [4]): 8.9 nM; EC50 (HepG2 cells; [5]): 2 nM; IC50 (human KHK-A): 0.4 nM

**Q.** With `C[C@H]1[C@H](F)CN1c1nc(-c2ccc([C@H](N)CS(C)(=O)=O)cc2)c2c(n1)C(F)(F)CC2` (single isomer, unassigned) [Example 788] as the compound, how does the IC50 (human KHK-C) read?
**A.** 2.5 nM

**Q.** And the EC50 (HepG2 cells; [4])?
**A.** 76.5 nM

**Q.** And the EC50 (HepG2 cells; [5])?
**A.** 18.6 nM

**Q.** What about the IC50 (human KHK-A) of the same compound?
**A.** 6 nM

**Q.** With `C[C@H]1CCN1c1nc2c(c(-c3cccc(C4CCS(=O)(=O)N4)c3)n1)CCC2` (stereo partly drawn) [Example 606, 3-(3-(2-((S)-2-methylazetidin-1-yl)-6,7-dihydro-5H-cyclopenta[d]pyrimidin-4-yl)phenyl)isothiazolidine 1,1-dioxide] as the compound, how does the EC50 [1] read?
**A.** 37.5 nM

**Q.** Which EC50 [1] does the source give for `C[C@H]1CCN1c1nc2c(c(-c3cn(C4CC4)nn3)n1)CCC2` [Example 644, 4-(1-cyclopropyltriazol-4-yl)-2-[(2S)-2-methylazetidin-1-yl]-6,7-dihydro-5H-cyclopenta[d]pyrimidine] here?
**A.** 709 nM

**Q.** `C[C@H]1[C@H](O)CN1c1nc(-c2ccc3c(c2)OCC[C@@H]3NS(C)(=O)=O)c2c(n1)C(F)(F)CC2` (single isomer, unassigned) [Example 787] was tested. Which IC50 (human KHK-C) did it give?
**A.** 1.1 nM

**Q.** What about the EC50 (HepG2 cells; [2]) of the same compound?
**A.** 27.5 nM

**Q.** And the EC50 (HepG2 cells; [3])?
**A.** 14.9 nM

**Q.** And the IC50 (human KHK-A)?
**A.** 7 nM

**Q.** `C[C@H]1CCN1c1nc(-c2ccc(C(N)=O)cc2)c2cn[nH]c2n1` [Example 401, (S)-4-(6-(2-methylazetidin-1-yl)-1H-pyrazolo[3,4-d]pyrimidin-4-yl)benzamide] was tested. Which EC50 [1] did it give?
**A.** > 5000 nM

**Q.** How did the EC50 [1] turn out when `C[C@H]1[C@H](CO)CN1c1nc2c(c(-c3ccc(C(N)=O)cc3)n1)CCC2` (racemic) [Example 267, (rac)-4-(2-((2S*,3R*)-3-(hydroxymethyl)-2-methylazetidin-1-yl)-6,7-dihydro-5H-cyclopenta[d]pyrimidin-4-yl)benzamide] was run?
**A.** > 5000 nM

**Q.** How did the EC50 [1] turn out when `C[C@H]1CCN1c1nc2c(c(-c3ccc4c(c3)C(=O)N(C)C4)n1)CCC2` [Example 206, 2-methyl-6-[2-[(2S)-2-methylazetidin-1-yl]-6,7-dihydro-5H-cyclopenta[d]pyrimidin-4-yl]isoindolin-1-one] was run?
**A.** 26.6 nM

**Q.** Which EC50 [1] does the source give for `C[C@H]1CCN1c1nc(-c2ccc([C@H](N)C(F)F)cc2)c2c(n1)C(F)(F)CC2` [Example 650, (1S)-1-[4-[7,7-difluoro-2-[(2S)-2-methylazetidin-1-yl]-5,6-dihydrocyclopenta[d]pyrimidin-4-yl]phenyl]-2,2-difluoro-ethanamine] here?
**A.** 39.1 nM

**Q.** With `C[C@H]1[C@H](F)CN1c1nc2c(c(-c3cccc(CN)c3)n1)CCC2` [Example 352, [3-[2-[(2S,3R)-3-fluoro-2-methyl-azetidin-1-yl]-6,7-dihydro-5H-cyclopenta[d]pyrimidin-4-yl]phenyl]methanamine] as the compound, how does the EC50 [1] read?
**A.** 201 nM

**Q.** How did the IC50 (human KHK-C; ADP-Glo) turn out when `C[C@H]1[C@H](O)CN1c1nc(-c2cc(F)c3c(c2)OC[C@@H]3NS(C)(=O)=O)c2c(n1)C(F)(F)CC2` (single isomer, unassigned) [Example 813] was run?
**A.** 2.5 nM

**Q.** And the EC50 (HepG2 cells; [2])?
**A.** 78.4 nM

**Q.** What about the EC50 (HepG2 cells; [3]) of the same compound?
**A.** 25.2 nM

**Q.** What about the IC50 (human KHK-A; ADP-Glo) of the same compound?
**A.** 34.7 nM

**Q.** For `CS(=O)(=O)N[C@H]1COc2cc(-c3nc(N4CC[C@@H]4C(F)F)nc4c3CCC4(F)F)ccc21` [Example 545, N—((R)-6-(2-((R)-2-(difluoromethyl)azetidin-1-yl)-7,7-difluoro-6,7-dihydro-5H-cyclopenta[d]pyrimidin-4-yl)-2,3-dihydrobenzofuran-3-yl)methanesulfonamide], which IC50 (human KHK-C) is on record?
**A.** 1 nM

**Q.** And the EC50 (HepG2 cells; [2])?
**A.** 24.7 nM

**Q.** And the EC50 (HepG2 cells; [3])?
**A.** 2.4 nM

**Q.** What about the IC50 (human KHK-A) of the same compound?
**A.** 4 nM

**Q.** For `C[C@H]1CCN1c1nc2c(c(-c3ccc(C4(NS(C)(=O)=O)CC4)cc3)n1)CCC2` [Example 306, (S)—N-(1-(4-(2-(2-methylazetidin-1-yl)-6,7-dihydro-5H-cyclopenta[d]pyrimidin-4-yl)phenyl)cyclopropyl)methanesulfonamide], which EC50 [1] is on record?
**A.** 450 nM

**Q.** For `C[C@H]1[C@H](O)CN1c1nc(-c2ccc3c(c2)CC[C@]32NC(=O)NC2=O)c2c(n1)C(F)(F)CC2` [Example 486, (S)-5′-(7,7-difluoro-2-((2S,3R)-3-hydroxy-2-methylazetidin-1-yl)-6,7-dihydro-5H-cyclopenta[d]pyrimidin-4-yl)-2′,3′-dihydrospiro[imidazolidine-4,1′-indene]-2,5-dione], which IC50 (human KHK-C) is on record?
**A.** 0.2 nM

**Q.** And the EC50 (HepG2 cells; [2])?
**A.** 8.3 nM

**Q.** And the EC50 (HepG2 cells; [3])?
**A.** 6 nM

**Q.** And the IC50 (human KHK-A)?
**A.** 1.7 nM

**Q.** How did the EC50 [1] turn out when `C[C@H]1CCN1c1nc2c(c(-c3nc4ccccc4[nH]3)n1)CCC2` [Example 389, 2-[2-[(2S)-2-methylazetidin-1-yl]-6,7-dihydro-5H-cyclopenta[d]pyrimidin-4-yl]-1H-benzimidazole] was run?
**A.** 217 nM

**Q.** With `C[C@H]1CCN1c1nc2c(c(-c3ccc(CNS(C)(=O)=O)cc3)n1)CCC2` [Example 361, N-[[4-[2-[(2S)-2-methylazetidin-1-yl]-6,7-dihydro-5H-cyclopenta[d]pyrimidin-4-yl]phenyl]methyl]methanesulfonamide] as the compound, how does the EC50 [1] read?
**A.** 65.7 nM

**Q.** `C[C@H]1[C@H](F)CN1c1nc2c(c(-c3ccc4c(c3)C(=O)N(C)C4)n1)CCC2` [Example 203, 6-[2-[(2S,3R)-3-fluoro-2-methyl-azetidin-1-yl]-6,7-dihydro-5H-cyclopenta[d]pyrimidin-4-yl]-2-methyl-isoindolin-1-one] was tested. Which EC50 [1] did it give?
**A.** 59.5 nM

**Q.** Which results are given for `C[C@H]1[C@H](O)CN1c1nc(-c2cc(F)c3c(c2)CCC3NS(C)(=O)=O)c2c(n1)C(F)(F)CC2` (stereo partly drawn) [Example 525, N-(5-(7,7-difluoro-2-((2S,3R)-3-hydroxy-2-methylazetidin-1-yl)-6,7-dihydro-5H-cyclopenta[d]pyrimidin-4-yl)-7-fluoro-2,3-dihydro-1H-inden-1-yl)methanesulfonamide]?
**A.** IC50 (human KHK-C): 1.8 nM; EC50 (HepG2 cells; [2]): 86.6 nM; EC50 (HepG2 cells; [3]): 32.5 nM; IC50 (human KHK-A): 29.8 nM

**Q.** Which EC50 [1] does the source give for `C[C@H]1[C@H](O)CN1c1nc(-c2ccc3c(c2)CNCC3)c2c(n1)C(F)(F)CC2` [Example 612, (2S,3R)-1-(7,7-difluoro-4-(1,2,3,4-tetrahydroisoquinolin-7-yl)-6,7-dihydro-5H-cyclopenta[d]pyrimidin-2-yl)-2-methylazetidin-3-ol] here?
**A.** 32.5 nM
